Consider 17 molecules from patent US20150344466A1 (SUMITOMO CHEMICAL COMPANY, LIMITED, priority 2013, published 2015).

Structures are written as SMILES. Where only a bound is given, the exact number is not on record here.

What all share (format): in vivo
Test [1] concerns Culex pipiens pallens. Description: Larvicidal test on Culex pipiens pallens, eight days (Test Example 7). The settings on record: 192 h; last-instar larvae of Culex pipiens pallens; 3.5 ppm in water; eight days later; read-out: death rate. The procedure:
20 last-instar larvae of Culex pipiens pallens were released into a liquid to which 0.7 ml of the above test drug solution was added to 100 ml of ion-exchanged water (a concentration of the active ingredient of 3.5 ppm). Eight days later, the life and death of the Culex pipiens pallens was examined, and the death rate was calculated. The death rate was calculated by the following equation.
(§1) Death rate (%)=(Number of dead insects/Number of tested insects)×100

Test [2] concerns Blattella germanica. Description: Knockdown spray test on Blattella germanica, 2.0% w/v oil formulation (Test Example 1). The settings on record: topical, 0.25 h, active ingredient 2.0% w/v, 1.5 ml sprayed, within 15 minutes, read-out: knockdown rate of the test insects within 15 minutes. Summed up:
(§2)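 Ten German cockroaches (5 males, 5 females) in a mesh-bottomed, butter-walled container were sprayed with 1.5 ml test solution from 60 cm at 0.42 kg/cm^2 inside a chamber.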

Test [3] concerns Culex pipiens pallens. As to the kind of experiment: Knockdown spray test on adult Culex pipiens pallens (Test Example 4). Particulars: topical, 0.25 h, active ingredient 0.1% w/v, 0.5 ml sprayed, within 15 minutes, read-out: knockdown rate of the test insects within 15 minutes. Summed up: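 Knockdown counts were taken 2, 5 and 15 min after spraying and expressed as percent of the 10 adults tested. For the spray, 0.5 ml of solution was applied by spray gun (0.4 kg/cm^2) from 30 cm above a gauze-covered cup in a test chamber; the cup was taken out right after spraying.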

In test [4] the test system is Spodoptera litura. Description: Foliar spray test on Spodoptera litura on cabbage (Test Example 11). Particulars: 96 h, fourth instar larvae of Spodoptera litura on cabbage, 500 ppm spray 20 ml/cup, after 4 days, read-out: controlling value. The procedure:
On the other hand, cabbage was planted in a polyethylene cup, and grown until the third-fourth true leaf was spread. The test spray solution was sprayed to the cabbage at a ratio of 20 ml/cup. After the drug solution sprayed orn the cabbage was dried, 10 fourth instar larvae of Spodoptera litura were allowed to parasitize the cabbage. After 4 days, the number of surviving Spodoptera litura on the cabbage leaves was examined, and the controlling value was calculated according to the following equation. Controlling value (%)={1−(Cb×Tai)/([…])}×100 In the equation, the symbols represent as follows. Cb: the number of insects in a non-treated section before treatment Cai: the number of insects in a non-treated section on observation Tb: the number of insects in a treated section before treatment Tai: the number of insects in a treated section on observation

Test [5] relates to Musca domestica. Description: Knockdown spray test on adult Musca domestica (Test Example 3). The settings on record: topical, 0.25 h, active ingredient 2.0% w/v, 0.5 ml sprayed, within 15 minutes, read-out: knockdown rate of the test insects within 15 minutes. Summed up:
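Ten adult house flies (5 male, 5 female) in a gauze-covered cup sprayed with 0.5 ml test solution from 30 cm at 0.9 kg/cm^2 inside a chamber, then removed. Knocked-down flies counted at 2, 5 and 15 min and expressed as % of insects tested.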

Test [6] deals with Culex pipiens pallens. As to the kind of experiment: Larvicidal test on Culex pipiens pallens, one day (Test Example 6). The settings on record: 24 h; last-instar larvae of Culex pipiens pallens; 3.5 ppm in water; one day later; read-out: death rate. The procedure: Each of the formulations of Compounds of Present Invention (39), (63), (71), (72), (92), (93), (95), (106), (150), (171), (170), (181), (182), (183), (187), (188), (189), (190), (191), (192), (200), (201), (201), (234), (246), (290) and (299) obtained in Formulation Example 15 was diluted with water, so as to have a concentration of the active ingredient of 500 ppm, to prepare a test drug solution.
20 last-instar larvae of Culex pipiens pallens were released into a liquid to which 0.7 ml of the above test drug solution was added to 100 ml of ion-exchanged water (a concentration of the active ingredient of 3.5 ppm). One day later, the life and death of the Culex pipiens pallens was examined, and the death rate was calculated. The death rate was calculated by the following equation.
as §1

Test [7] deals with Plutella xylostella. Description: Foliar spray test on Plutella xylostella on cabbage (Test Example 10). The settings on record: 120 h, third instar larvae of Plutella xylostella on cabbage, 500 ppm spray 20 ml/cup, after five days, read-out: controlling value. The method, boiled down: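 Cabbage at the third–fourth true-leaf stage sprayed with test solution at 20 ml/cup, dried, then infested with 10 third-instar larvae. Insects counted after five days; controlling value (%) calculated from treated and non-treated counts before treatment and at observation.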

Test [8] deals with Blattella germanica. Description: Knockdown spray test on Blattella germanica, 0.1% w/v oil formulation (Test Example 2). The settings on record: topical, 0.25 h, active ingredient 0.1% w/v, 1.5 ml sprayed, within 15 minutes, read-out: knockdown rate of the test insects within 15 minutes. The method, boiled down:
as §2

For test [9], the system named is Musca domestica. Description: Filter paper/sucrose bait death rate test on Musca domestica (Test Example 5). The settings on record: female imagoes of Musca domestica, 0.7 ml on filter paper, after 24 hours. Summed up: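 Ten female imagoes were confined in a sealed cup over a filter paper treated with 0.7 ml of test solution and 30 mg sucrose bait. Mortality was scored at 24 h and expressed as percent of tested insects killed.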

As to `O=C(NCC1CCOC1)c1cc(COCc2ccc3ccccc3c2)on1` (stereo not drawn) [(20), N-(tetrahydrofuran-3-ylmethyl)-5-(2-naphthylmethoxymethyl)isoxazole-3-carboxamide], the pest or weed control at 3.5 ppm in test [1] was not below 90%. The pest or weed control at 2 % strength in test [2] and in test [5] was not below 80% throughout. In addition, in test [3], the pest or weed control at 0.1 % strength is not below 80%. The pest or weed control at 500 ppm in [4] is not below 80%.
In the case of `O=C(NCC1CCOCC1)c1cc(COCc2ccc(Cl)cc2)on1` [(71), N-(tetrahydropyran-4-ylmethyl)-5-(4-chlorobenzyloxymethyl)isoxazole-3-carboxamide], the pest or weed control at 3.5 ppm in [6] is not below 90%. Further, the pest or weed control at 0.1 % strength in [3] is not below 80%. Also, the pest or weed control at 500 ppm in test [7] was not below 90%.
As for `O=C(NCC1CCOC1)c1cc(COCc2cccc(Br)c2)on1` (stereo not drawn) [(76), N-(tetrahydrofuran-3-ylmethyl)-5-[(3-bromobenzyl)oxymethyl]isoxazole-3-carboxamide], the pest or weed control at 0.1 % strength in [8] and in [3] was not below 80% throughout. For the same molecule, the pest or weed control at 3.5 ppm in test [1] is not below 90%. Moreover, the values for the pest or weed control at 500 ppm in test [7], in test [4] and in [9] were not below 90%, not below 80% and not below 90%, respectively.
Turning to `O=C(NCC1CCOCC1)c1cc(COCc2cccc(Br)c2)on1` [(77), N-(tetrahydropyran-4-ylmethyl)-5-(3-bromobenzyloxymethyl)isoxazole-3-carboxamide], the pest or weed control at 0.1 % strength in test [8] and in [3] was not below 80% throughout. Also, the pest or weed control at 3.5 ppm in [1] was not below 90%. Further, the pest or weed control at 500 ppm in [4] was not below 80%.
For the molecule `O=C(NCC1CCOC1)c1cc(COCc2ccc(SC(F)(F)F)cc2)on1` (stereo not drawn) [(95), N-(tetrahydrofuran-3-ylmethyl)-5-(4-trifluoromethylthiobenzyloxymethyl)isoxazole-3-carboxamide], the pest or weed control at 3.5 ppm in test [1] and in test [6] was not below 90% throughout. For the same molecule, the pest or weed control at 0.1 % strength in [3] was not below 80%.
As for `O=C(NCC1CCOCC1)c1cc(COc2ccc(Cl)cc2)on1` [(181), N-(tetrahydropyran-4-ylmethyl)-5-[(4-chlorophenoxy)methyl]isoxazole-3-carboxamide], the pest or weed control at 3.5 ppm in [1] and in test [6] was not below 90% in each case. The pest or weed control at 0.1 % strength in test [3] is not below 80%.
For `O=C(NCC1CCOC1)c1cc(COc2ccc(Cl)c(Cl)c2)on1` (stereo not drawn) [(182)], the pest or weed control at 3.5 ppm in test [1] and in test [6] was not below 90% in each case. Also, the pest or weed control at 0.1 % strength in test [3] is not below 80%.
With `O=C(NCC1CCOCC1)c1cc(COc2ccc(Br)cc2)on1` [(187), N-(tetrahydropyran-4-ylmethyl)-5-(4-bromophenoxymethyl)isoxazole-3-carboxamide], the pest or weed control at 3.5 ppm in test [1] and in test [6] was not below 90% each time. Also, the pest or weed control at 0.1 % strength in [3] is not below 80%.
On to `O=C(NCC1CCOC1)c1cc(COc2ccc(C(F)(F)F)cc2)on1` (stereo not drawn) [(188), N-(tetrahydrofuran-3-ylmethyl)-5-(4-trifluorophenoxymethyl) isoxazole-3-carboxamide], for which the pest or weed control at 3.5 ppm in [1] and in [6] was not below 90% throughout. For the same molecule, the pest or weed control at 0.1 % strength in [3] is not below 80%. In [7], the pest or weed control at 500 ppm is not below 90%.
For the molecule `O=C(NCC1CCOCC1)c1cc(COc2ccc(C(F)(F)F)cc2)on1` [(189), N-(tetrahydropyran-4-ylmethyl)-5-(4-trifluoromethylphenoxymethyl)isoxazole-3-carboxamide], the pest or weed control at 3.5 ppm in [1] and in test [6] was not below 90% in each case. The pest or weed control at 0.1 % strength in [3] is not below 80%.
Consider `O=C(NCC1CCOC1)c1cc(COc2ccc(SC(F)(F)F)cc2)on1` (stereo not drawn) [(192), N-(tetrahydrofuran-3-ylmethyl)-5-(4-trifluoromethylthiophenoxymethyl)isoxazole-3-carboxamide], for which the pest or weed control at 3.5 ppm in [1] and in test [6] was not below 90% in each case. The pest or weed control at 0.1 % strength in test [3] was not below 80%.
Consider `O=C(NCC1CCOC1)c1cc(COc2cccc(C(F)(F)F)c2)on1` (stereo not drawn) [(198), N-(tetrahydrofuran-3-ylmethyl)-5-(3-trifluoromethylphenoxymethyl)isoxazole-3-carboxamide], for which the pest or weed control at 0.1 % strength in [8] and in test [3] was not below 80% in each case. For the same molecule, in [1], the pest or weed control at 3.5 ppm was not below 90%. Moreover, the pest or weed control at 500 ppm in [4] is not below 80%.
Consider `O=C(NCC1CCOC1)c1cc(COCc2ccc3ccccc3c2F)on1` (stereo not drawn) [(258), N-(tetrahydrofuran-3-ylmethyl)-5-(1-fluoro-2-naphthylmethoxymethyl)isoxazole-3-carboxamide], for which the pest or weed control at 0.1 % strength in test [8] and in test [3] was not below 80% each time. Also, in test [1], the pest or weed control at 3.5 ppm was not below 90%. Besides, the pest or weed control at 500 ppm was not below 90% in test [7] and not below 80% in [4].
As to `O=C(NCC1CCOC1)c1cc(COCc2ccc(Cl)cc2F)on1` (stereo not drawn) [(260), N-(tetrahydrofuran-3-ylmethyl)-5-(4-chloro-2-fluorobenzyloxymethyl)isoxazole-3-carboxamide], the pest or weed control at 0.1 % strength in test [8] and in test [3] was not below 80% throughout. For the same molecule, the pest or weed control at 3.5 ppm in [1] was not below 90%. For the same molecule, the pest or weed control at 500 ppm in [4] was not below 80%; in test [9], not below 90%.
As to `O=C(NCC1CCOC1)c1cc(Cc2ccc3c(c2)OCO3)on1` (stereo not drawn) [(299), N-(tetrahydrofuran-3-ylmethyl)-5-(1,3-benzodioxolan-5-ylmethyl)isoxazole-3-carboxamide], in [6], the pest or weed control at 3.5 ppm is not below 90%. In addition, in test [3], the pest or weed control at 0.1 % strength was not below 80%. In addition, the pest or weed control at 500 ppm in test [9] was not below 90%.
Consider `O=C(NCC1CCOC1)c1cc(Cc2ccc(F)c(F)c2)on1` (stereo not drawn) [(306), N-(tetrahydrofuran-3-ylmethyl)-5-(3,4-difluorobenzyl)isoxazole-3-carboxamide], for which the pest or weed control at 0.1 % strength in test [8] and in [3] was not below 80% throughout. In addition, the figures for the pest or weed control at 500 ppm in [7], in [4] and in [9] were not below 90%, not below 80% and not below 90%, respectively.
Consider `O=C(NCC1CCOC1)c1cc(Cc2ccc(OC(F)(F)F)cc2)on1` (stereo not drawn) [(315), N-(tetrahydrofuran-3-ylmethyl)-5-(4-trifluoromethoxybenzyl) isoxazole-3-carboxamide], for which the pest or weed control at 3.5 ppm in test [1] was not below 90%. Besides, the pest or weed control at 0.1 % strength in test [3] is not below 80%. Also, the pest or weed control at 500 ppm in [4] was not below 80%; in [9] it was not below 90%.
